Laboratory results as given in patent US12384754B2, “Cocrystals of (1R,3S)-3-(5-cyano-4-phenyl-1,3-thiazol-2-ylcarbamoyl)cyclopentane carboxylic acid” (PALOBIOFARMA, S.L., priority 2020, dated 2025).
Like-named read-outs stand apart in the source and are kept apart here.

Columns and labels:
[1] = pKa / ΔpKa of free acid and cocrystal forming compounds; type: physicochemical
From the text: Cocrystals are distinguished from salts because unlike salts, the components that co-exist in the cocrystal lattice with a defined stoichiometry interact nonionically. […] If this criterion is met, the API-coformer entity should be classified as a cocrystal. (Regulatory Classification of Pharmaceutical Co-Crystals Guidance for Industry, February 2018, http://www.fda.gov/Drugs/GuidanceComplianceRegulatotyInformation/Guidances/default.htm).

[2] = Plasma pharmacokinetics / oral bioavailability after single IV and PO administration; type: in vivo; conditions: male SD rats; for F % (bioavailability): po 5 mg/Kg vs iv 1 mg/Kg
Protocol: The objective of this study was to investigate the plasma pharmacokinetics of differentes cocrystals obtained from (1R,3S)-3-(5-cyano-4-phenyl-1, 3-thiazol ylcarbamoyl) cyclopentane carboxylic acid, following a single intravenous (IV) and oral (PO) administration in male SD rats.
Animals were divided into two groups: Group 1 (IV: 1 mg/kg) and Group 2 (PO: 5 mg/kg). Animals in Group 1 and 2 were administered a solution of the different cocrystals of (1R,3S)-3-(5-cyano-4-phenyl-1,3-thiazol-2-ylcarbamoyl) cyclopentane carboxylic acid in normal saline. The blood samples were collected from set of three rats at each time point in labeled micro centrifuge tube containing K2EDTA solution as anticoagulant at Pre-dose, 0.083, 0.25, 0.5, 1, 2, 4, 8 and 24 hr (IV) and Pre-dose, 0.25, 0.5, 1, 2, 4, 6, 8 and 24 hr (PO). Plasma samples were separated by centrifugation of whole blood and stored below −70±10° C. until bioanalysis. All samples were processed for analysis by protein precipitation using acetonitrile and analyzed with fit-for-purpose LC-MS/MS method (LLOQ=1.00 ng/ml). Pharmacokinetic parameters were calculated using the non-compartmental analysis tool of Phoenix WinNonlin® (Version 6.3).

[3] = Comparative bioavailability assay in healthy volunteers; type: in vivo; conditions: for AUC0-t, MEAN ± SD / AUC0-t, geometric mean / AUC0-∞, MEAN ± SD / AUC0-∞, geometric mean / Cmax / Tmax / Cmax, MEAN ± SD / Cmax, geometric mean / tmax, median and range: single oral dose, Example 1 5 mg, Example 2 7.3 mg; for Cmax / Tmax: male, human, plasma, po, 5 mg; for Tmax: read-out: tmax, median and range
Protocol: Healthy volunteers in this study will be males 18 years of age or older in order to assess the comparative bioavailability of compound of Example 2 versus compound of Example 1, under fasting conditions and to investigate the effect of a high fat, high calorie meal. Compounds will be administered orally in single dose of Example 1 (5 mg) and Example 2 (7.3 mg). The study will have a randomized, open-label, four-fold crossover design.
In order to determine comparative bioavailability AUC0-t (AUC0-t: Area under the plasma concentration-time curve from time 0 h to the last measurable concentration) and Cmax (Cmax: Observed maximum plasma concentration (peak exposure)) will be determined after each administration.
16 volunteers were included in the study. […] Therefore, all the data were included in all pharmacokinetic measurements and calculations, without any adjustment.

[4] = Hygroscopicity study by DVS (Dynamic Vapour Sorption); type: physicochemical; conditions: for moisture content, 15% RH / moisture content, 35% RH / moisture content, 55% RH / moisture content, 75% RH: DVS, 25° C.; for variation in the moisture content: at 75% RH; for Hygroscopicity compared with the free acid: usual storage conditions of drugs (<75% RH), up to 75% RH
Protocol: Hygroscopicity study. The hygroscopicity of cocrystals was determined by DVS (Dynamic Vapour Sorption) with a Q5000 TA instrument. This is a gravimetric technique that measures the amount of water absorbed or desorbed by a sample at different relative humidities (RH). At each RH level, the sample mass must be allowed to reach gravimetric equilibrium (or surpass the time limit) before progressing to the next humidity level. Sorption and desorption isotherms were performed at 25° C. over a range of 0-95% RH. The sample was not previously dried, but it was exposed to 0% RH until reaching a stable weight before starting the DVS cycle. This equilibration step allows the elimination of the possible adsorbed humidity from the atmosphere. The relative humidity (RH) was controlled by a mixture of wet and dry nitrogen stream. The RH was held constant until the equilibrium had been obtained (constant weight) or until the maximum time has been reached, before changing the RH to the next level.

[5] = Crystalline stability under accelerated storage conditions (40° C., 75±5 RH %), XRPD; type: physicochemical
Protocol: Crystalline stability study was performed under accelerated stability conditions (40° C., 75±5 RH %) for one week. A sample of each form stored on a XRPD silicon holder was exposed in a climatic chamber. It is worth noting that these conditions are very drastic because the high surface exposed to the storage conditions might favour possible crystalline conversion. The samples were periodically analysed by XRPD to observe possible transformation.
Additional crystalline stability study was performed under accelerated stability conditions (40° C., 75±5 RH %). Cocrystal samples were stored in an open vial and exposed in a climate chamber maintaining the conditions set with accuracy (40° C.-75% RH ±5 RH). These samples were analysed weekly for 1 month.
The stability of the cocrystalline forms of (1R,3S)-3-(5-cyano-4-phenyl-1,3-thiazol ylcarbamoyl) cyclopentane carboxylic acid were studied under accelerated storage conditions (40° C., 75±5 RH %) for one to four week. See results in Table 5.
After time exposure, cocrystals remained stable according to XRPD analysis. Amorphization or appearance of crystalline forms was not detected in the limit of detection of the analysis conditions.

[6] = Fed (high fat, high calorie meal)

| Compound | pKa conjugated base ([1]; cocrystal forming compound) | F % (bioavailability) [2] [%] | AUClast ([2]; po, 5 mg/Kg) [ng·h/mL] | Cmax ([2]; po, 5 mg/Kg) [ng/mL] | AUC0-t, MEAN ± SD ([3]; Fasting) [ng/mLxh] | AUC0-t, geometric mean ([3]; Fasting) | AUC0-∞, MEAN ± SD ([3]; Fasting) [ng/mLxh] | AUC0-∞, geometric mean ([3]; Fasting) | AUC0-t, MEAN ± SD [3, 6] [ng/mLxh] | AUC0-t, geometric mean [3, 6] | AUC0-∞, MEAN ± SD [3, 6] [ng/mLxh] | AUC0-∞, geometric mean [3, 6] | moisture content, 15% RH [4] | moisture content, 35% RH [4] | moisture content, 55% RH [4] | moisture content, 75% RH [4] | variation in the moisture content [4] [%] | further results |
| --- | --- | --- | --- | --- | --- | --- | --- | --- | --- | --- | --- | --- | --- | --- | --- | --- | --- | --- |
| NC(=O)c1cccnc1 [Nicotinamide, 3-pyridinecarboxamide] |  |  |  |  |  |  |  |  |  |  |  |  |  |  |  |  |  | ΔpKa ([1]; between the free acid (pKa 4.3) and the cocrystal forming compound): 0.9; pKa ([1]; cocrystal forming compound, read-out: pKa conjugated base): 3.4 |
| NC(N)=O [Urea, urea] | Not basic |  |  |  |  |  |  |  |  |  |  |  |  |  |  |  |  |  |
| N#Cc1sc(NC(=O)[C@H]2CC[C@@H](C(=O)O)C2)nc1-c1ccccc1 [Example 1, (1R,3S)-3-(5-cyano-4-phenyl-1,3-thiazol-2-ylcarbamoyl) cyclopentane carboxylic acid] |  | 47 | 5200.71 | 2012 | 1155.0 ± 567.8 | (1052.8) ng/mLxh | 1257.2 ± 661.9 | (1132.2) ng/mLxh | 588.1 ± 160.9 | (567.9) ng/mLxh | 657.9 ± 191.4 | (632.7) ng/mLxh | 0.0168 | 0.1842 | 0.3008 | 0.4369 | 0.43 | pKa ([1]; free acid, read-out: pKa): 4.3; Cmax ([3]; Fasting, read-out: Cmax, MEAN ± SD): 187 ± 71.6 ng/mL; Cmax ([3]; Fasting, read-out: Cmax, geometric mean): 176 ng/mL; Tmax ([3]; Fasting): 2.5 h; Cmax ([3]; Fed (high fat, high calorie meal), read-out: Cmax, MEAN ± SD): 68 ng/mL; Cmax ([3]; Fed (high fat, high calorie meal), read-out: Cmax, geometric mean): 65.6 ng/mL; Tmax [3, 6]: 7 h |
| O=C(O)c1cc(O)ccc1O [Gentisic acid, 2,5-dihydroxybenzoic acid] | Not basic |  |  |  |  |  |  |  |  |  |  |  |  |  |  |  |  |  |
| N#Cc1sc(NC(=O)[C@H]2CC[C@@H](C(=O)O)C2)nc1-c1ccccc1.O=C(O)c1cc(O)ccc1O [Example 2, cocrystal of (1R,3S)-3-(5-cyano-4-phenyl-1,3-thiazol-2-ylcarbamoyl) cyclopentane carboxylic acid and gentisic acid] |  | 100 | 16502.48 | 8642.28 | 1138.5 ± 451.1 | (1071.4) ng/mLxh | 1216.5 ± 483.3 | (1141.7) ng/mLxh | 599.1 ± 132.1 | (585.9) ng/mLxh | 675.0 ± 158.8 | (659.1) ng/mLxh | 0.0079 | 0.0175 | 0.0398 | 0.1035 | 0.10 | AUClast ([2]; iv, 1 mg/Kg): 3304.55 ng·h/mL; Clearance ([2]; iv, 1 mg/Kg): 5.03 mL/min/kg; Cmax, MEAN ± SD ([3]; Fasting): 173.7 ± 60.7 ng/mL; Cmax, geometric mean ([3]; Fasting): (165.8) ng/mL; tmax, median and range ([3]; Fasting): 2.25 (1.5-5.0) h; Cmax, MEAN ± SD [3, 6]: 73.6 ± 25.1 ng/mL; Cmax, geometric mean [3, 6]: (69.8) ng/mL; tmax, median and range [3, 6]: 7.0 (5.0-7.0) h; Cmax compared with Example 1 ([3]; administered after a high fat meal): slightly higher; Stability, 1 week ([5]; 40° C., 75±5 RH %, XRPD, 1 week): stable; Stability, 2 weeks ([5]; 40° C., 75±5 RH %, XRPD, 2 weeks): stable; Stability, 3 weeks ([5]; 40° C., 75±5 RH %, XRPD, 3 weeks): stable; Stability, 4 weeks ([5]; 40° C., 75±5 RH %, XRPD, 4 weeks): stable; Stability under forced conditions (one week) and in 4-weeks stability assay ([5]; crystallinity, colour, aspect): no crystallinity changes, colour or any other change in the aspect were observed; Hygroscopicity compared with the free acid ([4]; listed as cocrystal with gentisic acid): less hygroscopic than free acid; Hygroscopicity compared with the free acid ([4]; listed as gentisic acid cocrystal): less hygroscopicity than the free acid |
